Test results taken from patent US9844566B2, “Pharmaceutical composition for the preparation of infusion solutions of antimicrobial preparations, its production process (variations)” (priority 2011, dated 2017).

Columns and labels:
Assay type in all cases: in vivo
[1] = tested on: Staphylococcus aureus (ATCC No 25923 F-49); assay: Experimental sepsis model in mice, S. aureus: survival on the seventh day; conditions: for Mice survival rate on the 7th day of infection, S. aureus: mice infected i.v. 10^10 CFU/mouse, i.v. treatment daily for 3 days; for Mice survival on the 7th day, absolute values (survival rate/infected animals), S. aureus: survivors/infected mice
Experimental: (§1) Determination of therapeutic efficiency of antimicrobial agents was done on experimental models of sepsis and methods for statistical treatment of the obtained results (χ^2) according to [R19 and R20].
(§2) Microgerms. Staphylococcus aureus (ATCC No 25923 F-49), Escherichia coli (ATCC No25922 F-50), Pseudomonas aeruginosa (ATCC No 27853 F-51), Candida albicans (ATCC No 24433).
(§3) Animals. The experiments were carried out on hybrid mice (CBA×C57Black/6)CBF1 according to the “Regulations for test animals use” (USSR Ministry of health, order supplement No 755 from Dec. 8, 1977).
(§4) Experimental sepsis models. Tested mice were injected intravenously 0.8 ml of P. aeruginosa daily culture suspension with a dosage 5×10^8 CFU/mouse or S. aureus daily culture suspension with a dosage 10^10 CFU/mouse or E. coli daily culture suspension with a dosage 8×10^8 CFU/mouse or Candida albicans daily culture suspension with a dosage 10^10 CFU/mouse. Mice of a control group were injected the 0.9% solution of NaCl or 5% dextrose solution in the volume of 0.8 ml.
(§5) In a day after being infected, during 3 days, the tested mice were daily intravenously injected with the indicated above antimicrobial preparations, dissolved in 0.9% solution of NaCl or in 5% dextrose solution, as well as their solutions prepared based on the pharmaceutical composition (as described hereinabove).
(§6) All beta-lactams were injected daily in the amount of 0.2 mg/mouse, amikacin sulfate in the amount of 2 mg/mouse daily, vancomycin in the amount of 1 mg/mouse daily, fosfomycin in the amount of 2 mg/mouse daily, and voriconazole in the amount of 0.1 mg/mouse contained in 0.5 ml of solution. Following the same order, the control group was injected with 0.9% NaCl solution or 5% dextrose solution, as well as water solutions of the pharmaceutical composition in the volume of 0.5 ml.
(§7) The antibacterial therapy efficiency was evaluated based on the number of surviving mice on the seventh day after being infected [R19, R20].
(§8) The obtained data shown in Tables 3 and 4 reflect the results of three independent experiments (at least 30 test animals were used for research of each inventive pharmaceutical preparation).

[2] = tested on: Escherichia coli (ATCC No25922 F-50); assay: Experimental sepsis model in mice, E. coli: survival on the seventh day; conditions: for Mice survival rate on the 7th day of infection, E. coli: mice infected i.v. 8×10^8 CFU/mouse, i.v. treatment daily for 3 days; for Mice survival on the 7th day, absolute values (survival rate/infected animals), E. coli: survivors/infected mice
Experimental: as §1, §2, §3, §4, §5, §6, §7, §8

[3] = tested on: Pseudomonas aeruginosa (ATCC No 27853 F-51); assay: Experimental sepsis model in mice, P. aeruginosa: survival on the seventh day; conditions: for Mice survival rate on the 7th day of infection, P. aeruginosa: mice infected i.v. 5×10^8 CFU/mouse, i.v. treatment daily for 3 days; for Mice survival on the 7th day, absolute values (survival rate/infected animals), P. aeruginosa: survivors/infected mice
Experimental: as §1, §2, §3, §4, §5, §6, §7, §8

[4] = tested on: Candida albicans (ATCC No 24433); assay: Experimental mycotic sepsis model in mice, Candida albicans: survival on the seventh day; conditions: for Mice survival rate on the 7th day of infection, Candida albicans: mice infected i.v. 10^10 CFU/mouse, i.v. treatment daily for 3 days; for Mice survival on the 7th day, absolute values (survival rate/infected animals), Candida albicans: survivors/infected mice
Experimental: as §1, §2, §3, §4, §5, §6, §7, §8

[5] = Table 3 (0.9% NaCl or NaCl:Colloidal silica)
[6] = Table 4 (5% dextrose or Dextrose:Colloidal silica)

Compound | Mice survival rate on the 7th day of infection, S. aureus [1, 5] [%] | Mice survival on the 7th day, absolute values (survival rate/infected animals), S. aureus [1, 5] | Mice survival rate on the 7th day of infection, S. aureus [1, 6] [%] | Mice survival on the 7th day, absolute values (survival rate/infected animals), S. aureus [1, 6] | Mice survival rate on the 7th day of infection, E. coli [2, 5] [%] | Mice survival on the 7th day, absolute values (survival rate/infected animals), E. coli [2, 5] | Mice survival rate on the 7th day of infection, E. coli [2, 6] [%] | Mice survival on the 7th day, absolute values (survival rate/infected animals), E. coli [2, 6] | Mice survival rate on the 7th day of infection, P. aeruginosa [3, 5] [%] | Mice survival on the 7th day, absolute values (survival rate/infected animals), P. aeruginosa [3, 5] | Mice survival rate on the 7th day of infection, P. aeruginosa [3, 6] [%] | Mice survival on the 7th day, absolute values (survival rate/infected animals), P. aeruginosa [3, 6] | Mice survival rate on the 7th day of infection, Candida albicans [4, 5] [%] | Mice survival on the 7th day, absolute values (survival rate/infected animals), Candida albicans [4, 5] | Mice survival rate on the 7th day of infection, Candida albicans [4, 6] [%] | Mice survival on the 7th day, absolute values (survival rate/infected animals), Candida albicans [4, 6]
C[C@@H](O)[C@H]1C(=O)N2C(C(=O)O)=C(S[C@@H]3CN[C@H](C(=O)N(C)C)C3)[C@H](C)[C@H]12 [Meropenem/0.9% NaCl solution, meropenem] | 70.9 | (22/31) | 73.8 | (31/42) | 73.8 | (31/42) | 78.0 | (32/41) | 71.8 | (23/32) | 74.4 | (32/43) | – | – | – | –
ceftriaxone [Ceftriaxone/5% dextrose solution] | – | – | 40.6 | (13/32) | – | – | 45.2 | (14/31) | – | – | – | – | – | – | – | –
voriconazole [Voriconazole/0.9% NaCl solution] | – | – | – | – | – | – | – | – | – | – | – | – | 45.1 | (14/31) | 46.7 | (14/30)
CN[C@H](CC(C)C)C(=O)N[C@H]1C(=O)N[C@@H](CC(N)=O)C(=O)N[C@H]2C(=O)N[C@H]3C(=O)N[C@H](C(=O)N[C@H](C(=O)O)c4cc(O)cc(O)c4-c4cc3ccc4O)[C@H](O)c3ccc(c(Cl)c3)Oc3cc2cc(c3O[C@@H]2O[C@H](CO)[C@@H](O)[C@H](O)[C@H]2O[C@H]2C[C@](C)(N)[C@H](O)[C@H](C)O2)Oc2ccc(cc2Cl)[C@H]1O [Vancomycin/0.9% NaCl solution, vancomycin] | 71.4 | (30/42) | 77.5 | (31/40) | – | – | – | – | – | – | – | – | – | – | – | –
C[C@@H]1O[C@@H]1P(=O)(O)O [Fosfomycin/0.9% NaCl solution, fosfomycin] | 36.7 | (11/30) | 43.7 | (14/32) | 43.3 | (13/30) | 46.7 | (14/30) | 30.0 | (9/30) | 35.2 | (15/34) | – | – | – | –
CO/N=C(\C(=O)N[C@@H]1C(=O)N2C(C(=O)[O-])=C(C[N+]3(C)CCCC3)CS[C@H]12)c1csc(N)n1 [Cefepime/0.9% NaCl solution, cefepime] | 46.7 | (14/30) | 56.7 | (17/30) | 58.1 | (18/31) | 54.4 | (17/31) | 51.6 | (16/31) | 50.0 | (15/30) | – | – | – | –
